From patent US20240278014A1, “METHODS AND PHARMACEUTICAL FORMULATIONS FOR MODULATING THE PROPERTIES OF THE BLOOD LABYRINTH BARRIER” (Cochlear Limited, priority 2021, published 2024)

Experiments:
[1] = guinea pig, in vivo, iv
Protocol: Fluorescein (20 mM) was administered through a cannula in the jugular vein by continuous intravenous (IV) injection at a rate of 20 μL/minute. […] Implants were placed through a cochleostomy into the basal turn of the scala tympani. Perilymph sampling began two hours after IV infusion began, and the concentration of fluorescein in the perilymph was used as a proxy for BLB permeability. Sampling in the perilymph was accomplished as follows: The cochlear apex was prepared for fluid sampling by building a hydrophobic cup of silicone adhesive around it. When the apex was perforated, the emerging fluid collected in the cup without loss into the middle ear. Ten samples were collected in sequence, with each taking 60 to 90 seconds. […] Fluorescein concentrations were compared for implanted versus non-implanted […], and from ears of non-implanted control animals.

[2] = Perilymph fluorescein as proxy for BLB permeability after cochlear implantation; format: in vivo, guinea pigs; details: on average; same animal; perilymph sampled two hours after start of IV infusion
Excerpt: In some embodiments, methods for assessing a more permeable than normal blood labyrinth barrier (but not treating it or preventing it from becoming more permeable) involve injecting a pharmaceutical formulation functioning as a marker into the blood stream of a recipient, measuring the amount of formulation in the perilymph as a function of time. As the barrier becomes more permeable after implantation, the formulation may be detected in greater quantities in the perilymph. In this type of experiment, the data may be normalized to the contralateral ear (without an implant), which allows data to be collected from a single subject serving as its own “control.”
We measured the time course of BLB compromise following cochlear implantation in guinea pigs to characterize the development of increasing BLB permeability relating to the BLB disruption that surgical implantation causes.
Seven days following cochlear implantation, the perilymph was sampled at 126 minutes (non-implanted) and 127 minutes (implanted) after the start of IV fluorescein infusion began (shown in solid symbols). Open symbols show the same data corrected to a sample time beginning at 120 minutes after the start of the infusion, assuming a linear rate of entry through the BLB over time. […] Each sample time represents the mean of samples 1-6 from one ear; lines represent the group (n=5) mean. […]

[3] = in vivo; cited from earlier work

| Compound | elimination half time [1] | volume of calculated time course [1] | BLB permeability increase (perilymph fluorescein, implanted versus nonimplanted ear) [2] | effect on BLB [3] |
| --- | --- | --- | --- | --- |
| O=C1OC2(c3ccc(O)cc3Oc3cc(O)ccc32)c2ccccc21 [Fluorescein] | 11 min | 183 mL | two- to three-fold | – |
| lipopolysaccharide [LPS] | – | – | – | induce systemic inflammation, compromising the BLB |
